According to article PMC4894409 (Scientific Reports, 2015):

Key:
recombinant human MAO-A = biological target: T1, recombinant human MAO-A (Homo sapiens, UniProt P21397); assay: Kynuramine deamination inhibition assay, MAO-A; type: biochemical; details: 80 μM kynuramine, pH 7.4, 37 °C
T1 construct: purchased BD Biosciences Bedford, MA, USA
T1 sequence (P21397 1-527): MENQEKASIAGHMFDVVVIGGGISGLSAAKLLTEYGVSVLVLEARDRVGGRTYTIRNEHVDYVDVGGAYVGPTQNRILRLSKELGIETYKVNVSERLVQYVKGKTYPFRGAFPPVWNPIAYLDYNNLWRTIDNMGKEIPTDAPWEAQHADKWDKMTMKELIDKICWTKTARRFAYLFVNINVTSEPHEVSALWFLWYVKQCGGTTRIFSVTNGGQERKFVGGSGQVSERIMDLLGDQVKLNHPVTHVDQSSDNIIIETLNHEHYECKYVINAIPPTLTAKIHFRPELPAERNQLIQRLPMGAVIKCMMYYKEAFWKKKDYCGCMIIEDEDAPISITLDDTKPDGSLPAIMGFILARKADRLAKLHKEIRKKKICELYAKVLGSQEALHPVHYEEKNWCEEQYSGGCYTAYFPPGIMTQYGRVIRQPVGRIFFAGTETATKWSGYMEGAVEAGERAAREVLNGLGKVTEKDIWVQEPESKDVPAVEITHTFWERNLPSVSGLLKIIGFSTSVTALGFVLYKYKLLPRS
Experimental: (§1) The assay was performed with the addition of inhibitor. Inhibition was calculated as percent of product formation compared to the corresponding control (enzyme-substrate reaction) without the inhibitors. The reactions were carried out in 0.1 M potassium phosphate buffer at pH 7.4. […] The compounds were dissolved in DMSO. The total reaction volume was 200 μL yielding a final DMSO concentration of 1.0% in the reaction mixture.

5-HT1A receptor = biological target: T2, 5-HT1A receptor (Mus musculus, UniProt Q64264); assay: [35S]GTPγS binding to mice hippocampal membranes; type: biochemical
T2 construct: The hippocampi of mice were dissected and homogenized in 5 volumes of ice-cold buffer; from tissue; host or cells: mouse hippocampus membranes
T2 sequence (Q64264 1-421): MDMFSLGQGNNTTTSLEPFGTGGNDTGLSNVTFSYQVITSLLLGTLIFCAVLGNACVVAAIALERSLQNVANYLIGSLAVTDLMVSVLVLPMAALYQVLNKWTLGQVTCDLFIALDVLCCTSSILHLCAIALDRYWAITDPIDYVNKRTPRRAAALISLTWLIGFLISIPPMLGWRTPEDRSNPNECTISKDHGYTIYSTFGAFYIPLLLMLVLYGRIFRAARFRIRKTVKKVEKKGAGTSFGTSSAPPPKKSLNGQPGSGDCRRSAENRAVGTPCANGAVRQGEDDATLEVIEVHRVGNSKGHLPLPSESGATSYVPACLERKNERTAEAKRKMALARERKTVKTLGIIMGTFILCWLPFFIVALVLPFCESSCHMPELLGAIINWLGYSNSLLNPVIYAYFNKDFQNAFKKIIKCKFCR
Experimental: The hippocampi of mice were dissected and homogenized in 5 volumes of ice-cold buffer (25 mM Tris-HCl, 0.5 mM dithiothreitol, and 0.5 mM EGTA, pH 7.4). The homogenate was centrifuged (1,000 × g for 5 min at 4 °C) and the resultant supernatant was removed. The remaining pellet was resuspended in buffer, homogenized, and centrifuged. The two supernatants obtained were combined and centrifuged at […] at 4 °C and the pellets were resuspended in membrane preparation buffer. The volumes were adjusted prior to the determination of protein concentration by Bradford method[56] and stored at −80 °C until required. […] The reactions were initiated by the addition of 25 μl [^35S]-GTPγS, followed by a 20 min incubation at 20 °C. The reactions were terminated by rapid filtration. The filters were placed in liquid scintillation cocktail in counting vials. The liquid scintillation spectroscopy was used to measure the radioactivity bound to the filter paper after 10 hour.

recombinant human MAO-B = biological target: T3, recombinant human MAO-B (Homo sapiens, UniProt P27338); assay: Kynuramine deamination inhibition assay, MAO-B; type: biochemical; details: 50 μM kynuramine, pH 7.4, 37 °C
T3 construct: purchased BD Biosciences Bedford, MA, USA
T3 sequence (P27338 1-520): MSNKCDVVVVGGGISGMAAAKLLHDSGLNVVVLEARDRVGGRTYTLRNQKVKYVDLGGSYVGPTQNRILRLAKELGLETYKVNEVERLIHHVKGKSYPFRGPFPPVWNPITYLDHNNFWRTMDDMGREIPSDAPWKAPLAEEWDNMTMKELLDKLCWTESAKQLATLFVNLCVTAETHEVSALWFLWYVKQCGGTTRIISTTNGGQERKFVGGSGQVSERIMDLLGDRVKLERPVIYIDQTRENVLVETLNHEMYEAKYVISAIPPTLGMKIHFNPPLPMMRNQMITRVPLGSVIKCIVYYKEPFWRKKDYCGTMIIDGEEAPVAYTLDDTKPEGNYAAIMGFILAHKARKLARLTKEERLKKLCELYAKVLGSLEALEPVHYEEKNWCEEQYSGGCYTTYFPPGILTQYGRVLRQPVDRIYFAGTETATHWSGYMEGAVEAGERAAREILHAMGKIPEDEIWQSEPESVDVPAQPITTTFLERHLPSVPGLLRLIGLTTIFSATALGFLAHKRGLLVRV
Experimental: as §1

mice = assay: Open field (OF) test; type: in vivo, Male Swiss mice
Experimental: Male Swiss mice (weighing between 25–30 g; 6–8 weeks old), provided by Central Animal House of the Federal University of Goiás, were used in all behavioural models. The experimental animals were kept in an intra-laboratory facility cage (32 × 18 × 16 cm) under controlled environmental conditions (23 ± 1 °C, 12 hr light-dark cycle) with access to food and water ad libitum. The experimental protocols (number 104/08) were approved by Ethical Committee of Federal University of Goiás in accordance to the international laws on the care and use of laboratory animals.
In the OF, animals were randomly divided into six groups [control (vehicle), 3 different doses of OAD, DZP 1 or 5 mg/kg]. Animals were treated with vehicle, OAD (5, 10 or 20 mg/kg, p.o), DZP (1 or 5 mg/kg, p.o) as described in our previous work[7][49], and placed in a circular open field [base area ( [drawing 2] ) = 62.80 cm^2 which is divided into 8 equal sectors enclosed in a 50 cm high wooden wall]. The test session (5-min duration) was videotaped in a sound-proof experimental room. Parameters like total crossing, freezing time, number of grooming and rearing activity, crossing at the centre and time spent at the centre of the open field were observed and scored.

In the case of C=CC(=O)O[C@H]1CC[C@]2(C)[C@H]3CC=C4[C@@H]5CC(C)(C)CC[C@]5(C(=O)O)CC[C@@]4(C)[C@]3(C)CC[C@H]2C1(C)C [D1, Oleanolic acid acrylate], the IC50 (recombinant human MAO-A) is reported as 48.8 ± 1.94 µM, the EC50 (5-HT1A receptor; mice hippocampal membranes, read-out: Agonist potency (pEC50 ± SEM) (converted)) is reported as 0.794 µM and the Emax (5-HT1A receptor; percentage of that produced by 10 μM (+)8-OH-DPAT, read-out: Intrinsic activity (Emax ± SEM in %)) is reported as 26 ± 2%. For the same compound, the IC50 (recombinant human MAO-B) was over 100 µM, the “crossing at the centre of the OF” value (mice; 10 mg/kg p.o., vs vehicle) was “increase” and the “freezing time in the OF” value (mice; 20 mg/kg p.o., vs vehicle) was “increase”. The “other parameters of the OF test” value (mice; 5, 10, 20 mg/kg p.o., parameters not named as changed, p > 0.05) was “not altered” and the “time spent at the centre of the OF” value (mice; 10 and 20 mg/kg p.o., vs vehicle) was “increase”.
